Reference: ChEMBL document CHEMBL1136415, “3-Acylamino-azetidin-2-one as a novel class of cysteine proteases inhibitors” (Bioorg Med Chem Lett, 2003)

How the values were obtained:
[1] = molecular target: T1, Neutrophil elastase (Homo sapiens, UniProt P08246); test: Inhibition of human leukocyte elastase(HLE)
T1 sequence (P08246 whole entry): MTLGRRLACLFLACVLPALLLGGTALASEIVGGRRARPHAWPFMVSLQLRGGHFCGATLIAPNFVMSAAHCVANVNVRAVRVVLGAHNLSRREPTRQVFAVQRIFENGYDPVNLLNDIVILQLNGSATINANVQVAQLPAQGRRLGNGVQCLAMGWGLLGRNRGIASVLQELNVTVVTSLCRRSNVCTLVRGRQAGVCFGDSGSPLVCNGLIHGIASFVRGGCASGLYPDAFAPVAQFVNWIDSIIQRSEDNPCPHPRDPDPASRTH

[2] = molecular target: T2, Cathepsin K (Homo sapiens, UniProt P43235); test: Inhibition of recombinant human Cathepsin K
T2 sequence (P43235 whole entry): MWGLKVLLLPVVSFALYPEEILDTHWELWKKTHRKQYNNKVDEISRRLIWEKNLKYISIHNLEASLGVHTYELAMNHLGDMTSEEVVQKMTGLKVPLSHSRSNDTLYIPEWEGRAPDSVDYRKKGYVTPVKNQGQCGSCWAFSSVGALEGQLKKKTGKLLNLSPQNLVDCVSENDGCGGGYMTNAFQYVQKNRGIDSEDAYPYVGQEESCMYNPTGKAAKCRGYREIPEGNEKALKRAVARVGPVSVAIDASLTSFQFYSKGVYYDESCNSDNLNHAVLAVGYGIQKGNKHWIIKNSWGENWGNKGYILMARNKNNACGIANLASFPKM

[3] = molecular target: Cathepsin B (Rattus norvegicus, UniProt P00787); test: Inhibition of recombinant rat Cathepsin B
Cathepsin B, sequence (P00787 whole entry): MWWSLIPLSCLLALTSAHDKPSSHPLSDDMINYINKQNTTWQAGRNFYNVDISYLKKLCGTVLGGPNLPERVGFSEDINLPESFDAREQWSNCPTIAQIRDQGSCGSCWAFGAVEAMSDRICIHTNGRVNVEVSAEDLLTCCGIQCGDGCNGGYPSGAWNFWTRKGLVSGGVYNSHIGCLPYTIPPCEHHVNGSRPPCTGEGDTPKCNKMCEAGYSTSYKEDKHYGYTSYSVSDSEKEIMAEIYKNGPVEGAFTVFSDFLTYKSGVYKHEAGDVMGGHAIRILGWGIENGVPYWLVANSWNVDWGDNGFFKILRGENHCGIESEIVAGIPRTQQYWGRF

[4] = molecular target: Cathepsin S (Homo sapiens, UniProt P25774); test: Inhibition of recombinant human cathepsin S
Cathepsin S, sequence (P25774 whole entry): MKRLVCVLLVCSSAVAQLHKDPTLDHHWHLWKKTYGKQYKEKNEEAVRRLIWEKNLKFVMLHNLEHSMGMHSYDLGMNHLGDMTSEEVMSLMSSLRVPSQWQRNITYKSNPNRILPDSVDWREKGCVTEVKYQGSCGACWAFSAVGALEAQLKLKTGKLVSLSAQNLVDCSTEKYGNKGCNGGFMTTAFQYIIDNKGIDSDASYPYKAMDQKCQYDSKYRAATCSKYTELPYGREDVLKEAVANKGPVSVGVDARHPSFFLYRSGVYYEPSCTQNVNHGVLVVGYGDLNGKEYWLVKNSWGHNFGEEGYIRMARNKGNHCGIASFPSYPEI

[5] = molecular target: Procathepsin L (Homo sapiens, UniProt P07711); test: Inhibition of recombinant human Cathepsin L
Procathepsin L, sequence (P07711 whole entry): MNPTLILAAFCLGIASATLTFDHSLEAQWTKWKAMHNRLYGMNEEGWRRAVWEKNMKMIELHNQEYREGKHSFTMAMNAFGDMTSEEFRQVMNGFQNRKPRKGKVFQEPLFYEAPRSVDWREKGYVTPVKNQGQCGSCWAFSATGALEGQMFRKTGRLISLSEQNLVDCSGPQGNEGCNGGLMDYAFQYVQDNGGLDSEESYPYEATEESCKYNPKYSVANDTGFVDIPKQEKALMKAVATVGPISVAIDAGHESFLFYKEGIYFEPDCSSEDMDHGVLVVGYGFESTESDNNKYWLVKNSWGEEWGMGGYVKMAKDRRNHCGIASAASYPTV

IC50 [1] [nM]	IC50 [2] [nM]	IC50 [3] [nM]	IC50 [4] [nM]	IC50 [5] [nM]	Compound
> 30000	100	10900	330		O=C(N[C@@H](Cc1ccccc1)C(=O)N[C@@H]1C(=O)N[C@H]1Oc1ccccc1)OCc1ccccc1
> 50000	2500	32600	> 2500	3960	O=C(N[C@@H](Cc1ccccc1)C(=O)N[C@@H]1C(=O)N[C@H]1OCc1ccccc1)OCc1ccccc1
> 50000	> 5000	13600	> 5000	37400	O=C(N[C@@H](Cc1ccccc1)C(=O)N[C@@H]1CNC1=O)OCc1ccccc1
> 50000	8.4	10500	330	0.1	O=C(N[C@@H](Cc1ccccc1)C(=O)N[C@@H]1C(=O)N[C@H]1Sc1ccccc1)OCc1ccccc1
> 10000	100	470	207	42	CC(=O)O[C@@H]1NC(=O)[C@H]1NC(=O)[C@H](Cc1ccccc1)NC(=O)OCc1ccccc1
> 30000	16	430			O=C(N[C@@H](Cc1ccccc1)C(=O)N[C@@H]1C(=O)N[C@@H]1Oc1ccccc1)OCc1ccccc1
> 50000	6.5		48	0.1	O=C(N[C@@H](Cc1ccccc1)C(=O)N[C@@H]1C(=O)N[C@H]1S(=O)(=O)c1ccccc1)OCc1ccccc1
> 50000	72	39700	2500	15	O=C(N[C@@H](Cc1ccccc1)C(=O)N[C@@H]1C(=O)N[C@@H]1Sc1ccccc1)OCc1ccccc1
> 50000	100	27500	20	166	O=C(N[C@@H](Cc1ccccc1)C(=O)N[C@@H]1C(=O)N[C@H]1OC(=O)c1ccccc1)OCc1ccccc1
> 50000	100	7010	355	163	CCCCO[C@@H]1NC(=O)[C@H]1NC(=O)[C@H](Cc1ccccc1)NC(=O)OCc1ccccc1
> 50000		2700			O=C(N[C@@H](Cc1ccccc1)C(=O)N[C@H]1CNC1=O)OCc1ccccc1
> 50000	2500	11400	> 2500	780	CC(C)(C)O[C@@H]1NC(=O)[C@H]1NC(=O)[C@H](Cc1ccccc1)NC(=O)OCc1ccccc1
> 50000	2300	6460	> 2500	91	CC(C)CO[C@@H]1NC(=O)[C@H]1NC(=O)[C@H](Cc1ccccc1)NC(=O)OCc1ccccc1
> 50000	38	9710	41	47	O=C(CCc1ccccc1)O[C@@H]1NC(=O)[C@H]1NC(=O)[C@H](Cc1ccccc1)NC(=O)OCc1ccccc1
